Data reported in patent US20250066507A1, “METHODS OF TREATING CANCER WITH A COMBINATION OF AN ANTI-PD-1 ANTIBODY AND AN ANTI-TISSUE FACTOR ANTIBODY-DRUG CONJUGATE” (Genmab A/S, priority 2018, published 2025).
Square brackets hold non-standard residues; d marks the D form. Peptide text beside a SMILES is read from it. * marks the point of attachment. Dolaproine = CO[C@@H]([C@@H]1CCCN1)[C@@H](C)C(=O)O; Dil = CC[C@H](C)[C@H](NC)[C@@H](CC(=O)O)OC; X1 = C[C@@H](N*)[C@@H](O)c1ccccc1; NMeV = CN[C@H](C(=O)O)C(C)C

What was measured:
[1] = test system: Tissue Factor positive cell lines; experiment: Release of ICD molecules ATP and HMGB1 from Tissue Factor positive cells; format: cell-based; conditions: for ATP secretion: FIG. 4A; for HMGB1 release: FIG. 4C
Source text: Auristatin ADC payloads disrupt the microtubule networks resulting in altered ER localization and function, which ultimately results in ER stress. Cells exposed to Tissue Factor directed antibody linked to the monomethyl auristatin E payload (MMAE), i.e., tisotumab vedotin (an antibody drug conjugate or ADC), undergo cell death and as they do release the ICD related molecules ATP (FIG. 4A) and HMGB1 (FIG. 4C). The release of these molecules is specific to tisotumab vedotin ADC and MMAE treatment and occurs across multiple Tissue Factor positive cell lines (FIG. 4B).

[2] = test system: HPAFII (pancreatic carcinoma); experiment: Western blot of ER stress pathways in HPAFII cells; format: cell-based; conditions: 18 hours (FIG. 5 legend: 16 hours)
Experimental: (§1) Induction of cell death and release of ICD danger signals occurs concomitant with initiation of an ER stress response. Two Tissue Factor positive cell lines, HPAFII (pancreatic carcinoma) and MDA-MB-231 (breast cell carcinoma) were exposed to tisotumab vedotin ADC, an Isotype-MMAE ADC (H00-MMAE, IgG1 MMAE), or free MMAE for 18 hours and induction of ER stress monitored by western blot analysis. Phosphorylation of inositol-requiring transmembrane kinase/endonuclease 1 (IRE1) was detected after treatment with tisotumab vedotin ADC or MMAE free drug (FIG. 5). […] The ability for auristatins to prime the immune system to recognize tumor antigens opens the door for a myriad of combinatorial therapeutic options.

[3] = test system: MDA-MB-231 (breast cell carcinoma); experiment: Western blot of ER stress pathways in MDA-MB-231 cells; format: cell-based; conditions: 18 hours (FIG. 5 legend: 16 hours)
Experimental: as §1

[4] = test system: CD14+ monocyte/macrophages; experiment: Monocyte/macrophage activation in PBMCs fed drug-killed MDA-MB-231 cells; format: cell-based; conditions: MDA-MB-231 cells killed with the agent, fed to human PBMCs; for monocyte/macrophage activation monitored by CD86 expression: flow cytometry
Source text: FIGS. 6A and 6B is a series of graphs in which Tissue Factor positive MDA-MB-231 cells killed with various agents were fed to human peripheral blood mononuclear cells (PBMCs) and immune activation assessed by increased expression of activations markers on innate CD14+ monocyte/macrophages and induction of chemokine and cytokine production.
Immunogenic cell death, as mediated by MMAE, is regulated cell death that activates adaptive immune responses against antigens from dead and dying tumor cells, and allows for the generation of robust innate immune cell activation and subsequent cytotoxic T cell responses targeted towards specific tumor cell antigens. […] Furthermore, these monocyte/macrophages conditioned by ICD-killed cells promote activation of T cells, as evidenced by production of signature inflammatory cytokines associated with cytotoxic T cell responses.

T cells = experiment: T cell activation in CSFE labeled PBMCs fed drug-killed MDA-MB-231 cells, with or without nivolumab; format: cell-based, human; conditions: for T cell proliferation (CSFE dilution) / IFNγ production / IL12p70 production: MDA-MB-231 cells exposed to the agent; for T cell proliferation (CSFE dilution): fed to CSFE labeled human PBMCs for 48 hours; for IFNγ production / IL12p70 production: fed to human PBMCs for 48 hours
Source text: Induction of the innate immune response following exposure to cancer cells undergoing ICD sets up secondary T cell activation, which can be enhanced by concomitant anti-PD1 treatment.

wild-type tumor cells = experiment: Syngeneic model: immunization with drug-killed human TF positive tumor cells, then tumor challenge; format: in vivo, Balb/c mice; conditions: for survival after challenge / tumor growth after challenge: Balb/c mice immunized with human TF positive tumor cells killed by the agent, challenged s.c. with 5×10^6 wild-type tumor cells
Experimental: Mouse tumor cells are transfected with plasmid constructs encoding human tissue factor (TF) and sgRNA-guided Cas9 nuclease (sgRNA/Cas9) to generate a murine cell line that expresses the human TF. Fluorescence activated cell sorting (FACS) yields a clonal population of murine tumor cells that stably express human TF, these cells are then treated with lpg to 5 μg per ml of tisotumab vedotin or 100 nM of MMAE for 4 days. In order to prepare dying cells for immunization, treated murine tumor cells are overlaid atop Histopaque, and centrifuged at 2000 g for 30 minutes. Dead and dying cells are pelleted underneath the Histopaque layer, and viability assessed by trypan blue exclusion. A sample with approximately <20% live cells as measured by trypan blue exclusion is obtained. Flash-frozen tumor cells are prepared by submerging the cells in liquid nitrogen for 10 seconds, followed by immersion in 37° C. water until completely thawed. The liquid nitrogen freeze-thaw process is repeated 5 times. Dead and dying human TF positive tumor cells are resuspended in phosphate buffered saline (PBS) and 2×10^6 cells are injected into the peritoneum of immune-competent Balb/c mice. Seven days later, mice receive a second immunization with dead and dying cells prepared in the same manner.
Fourteen days after initial immunization with the dead and dying human TF positive tumor cells, mice are subcutaneously implanted with 5×10^6 wild-type tumor cells and monitored for tumor growth. […] As these effects occur in the absence of any administered therapeutic agent, the administration of cells killed by tisotumab vedotin or MMAE is sufficient to generate long-lasting protective immune memory against subsequent tumor cell challenge. Protective immune memory is amplified by treating these mice with tisotumab vedotin in combination with an antibody that binds to murine PD-1. This combination treatment increases the number of mice that are cured by subsequent tumor challenge.

HeLa cells [5] = experiment: Western blot of ER stress signalling in MMAE-treated HeLa cells; format: cell-based; conditions: 100 nM MMAE, 16 hours
Experimental: HeLa cells, a cervical cancer cell line, were cultured in Minimum Essential Medium (MEM) with 10% FBS, 10 mM HEPES, 1 mM sodium pyruvate, 2 mM L-glutamine, penicillin (100 U/ml), and streptomycin (100 μg/ml). HeLa cells were treated with 100 nM MMAE for 16 hours and harvested in radioimmunoprecipitation assay buffer (RIPA) buffer for western blot analysis. […] Severe ER stress is a prerequisite to the exposure of pro-phagocytic signals on the surface of tumor cells, and can be indicated by activation of JNK signaling by phosphorylated IRE1.

HeLa cells [6] = experiment: Live imaging of RFP-tubulin and ER-ID Green in MMAE-treated HeLa cells; format: cell-based; conditions: 100 nM MMAE, imaged over time
Experimental: Treatment of HeLa cells with MMAE led to disassembly of the microtubule network and subsequent ER mislocalization. HeLa cells were transduced with a baculovirus encoding RFP-labeled Tubulin (CellLight Tubulin-RFP, ThermoFisher Scientific) and an ER-binding dye (ER-ID Green, Enzo Life Sciences). Cells were treated with 100 nM MMAE and imaged over time in the present of MMAE. Within 2 hours, fragmentation and disassembly of the microtubule network became evident, concurrent with the breakdown of the perinuclear organized ER lattice (FIGS. 2A and B). The condensed and mislocalized ER skeleton indicated severe ER stress within 8 hours.

HeLa cells [7] = experiment: ATP and HMGB1 secretion from MMAE-treated HeLa cells; format: cell-based; conditions: 100 nM MMAE, over 24 hours, versus untreated cells
Source text: Induction of ICD is also characterized by the secretion of ATP and HMGB1. Extracellular ATP serves as a strong chemotactic signal, promoting immune cell migration to the tumor site. Upon arrival, extracellular HMGB1 signals through various pro-inflammatory receptors (TLR2, TLR4, RAGE) to activate antigen-presenting cells, thereby promoting immune activity within the tumor.

advanced cervical cancer = conditions: 240 mg Q2W, 19 patients with previously treated; cited from earlier work
[8] = concomitant nivolumab treatment, 48 hours

Row | Compound | ATP secretion [1] | HMGB1 release [1] | ATF4 cleavage (PERK pathway) [2] | activation of JNK (phosphorylation) [2] | phosphorylation of IRE1 [2] | ATF4 cleavage (PERK pathway) [3] | activation of JNK (phosphorylation) [3] | phosphorylation of IRE1 [3] | release of innate chemokines including MIP10 [4] | monocyte/macrophage activation monitored by CD86 expression [4] | T cell proliferation (CSFE dilution) (T cells) | IFNγ production (T cells) | IL12p70 production (T cells) | survival after challenge (wild-type tumor cells) | tumor growth after challenge (wild-type tumor cells) | also measured
1 | tisotumab vedotin | robust | robust | upregulation of ATF4 cleavage | increased phosphorylation | detected | upregulation of ATF4 cleavage | increased phosphorylation | detected | induced release | drove monocyte/macrophage activations | drove T cell proliferation | increased | increased | increased survival | delayed tumor growth | activity (release of ICD molecules) on multiple Tissue Factor positive cell lines ([1]; FIG. 4B): active; number of mice cured by subsequent tumor challenge (wild-type tumor cells; immunized mice treated with tisotumab vedotin in combination with an antibody that binds to murine PD-1): increases
2 | CC[C@H](C)[C@@H]([C@@H](CC(=O)N1CCC[C@H]1[C@H](OC)[C@@H](C)C(=O)N[C@H](C)[C@@H](O)c1ccccc1)OC)N(C)C(=O)[C@@H](NC(=O)[C@@H](NC)C(C)C)C(C)C [MMAE, monomethyl auristatin E] (H-[NMeV]V[Dil][Dolaproine]-X1) | robust | robust | upregulation of ATF4 cleavage | increased phosphorylation | detected | upregulation of ATF4 cleavage | increased phosphorylation | detected | induced release | drove monocyte/macrophage activations | drove T cell proliferation | increased | increased | increased survival | delayed tumor growth | phosphorylation of IRE1 (HeLa cells [5]): led to phosphorylation; phosphorylation of JNK (HeLa cells [5]): phosphorylation of IRE1 and JNK; time until condensed and mislocalized ER skeleton indicated severe ER stress (HeLa cells [6]): ≤ 8 h; time until fragmentation and disassembly of the microtubule network and breakdown of the perinuclear ER lattice became evident (HeLa cells [6]): ≤ 2 h; secretion of ATP (HeLa cells [7]): increased secretion; secretion of HMGB1 (HeLa cells [7]): increased secretion
3 | nivolumab: anti-PD-1 antibody, a checkpoint inhibitor | – | – | – | – | – | – | – | – | – | – | – | – | – | – | – | effect of nivolumab on T cell proliferation driven by tisotumab vedotin or MMAE killed cells (T cells; 2 mg/ml of nivolumab, 48 hours): enhanced; effect of concomitant nivolumab on IFNγ production after tisotumab vedotin and MMAE killed cells (T cells; [8]): increased; effect of concomitant nivolumab on IL12p70 production after tisotumab vedotin and MMAE killed cells (T cells; [8]): increased; objective response rate (advanced cervical cancer): 26%
4 | tisotumab | – | – | – | – | – | – | – | – | – | – | did not elicit these responses | did not elicit these responses | did not elicit these responses | – | – | –
